What was measured:
[1] = target: Tyrosine-protein kinase Lck (Homo sapiens) (UniProt P06239); experiment: Inhibition of human LCK at 100 nM using poly[Glu:Tyr] (4:1) as substrate by [gamma-33P]-ATP assay
[2] = target: Fibroblast growth factor receptor 3 (Homo sapiens) (UniProt P22607); experiment: Inhibition of human FGFR3 at 100 nM using poly[Glu:Tyr] (4:1) as substrate by [gamma-33P]-ATP assay
[3] = target: Mitogen-activated protein kinase 11 (Homo sapiens) (UniProt Q15759); experiment: Inhibition of human p38beta at 100 nM using MBP as substrate by [gamma-33P]-ATP assay
[4] = target: Insulin receptor-related protein (Homo sapiens) (UniProt P14616); experiment: Inhibition of human IRR at 100 nM using MBP as substrate by [gamma-33P]-ATP assay
[5] = target: G protein-coupled receptor kinase 3 (Homo sapiens) (UniProt P35626); experiment: Inhibition of human GRK3 at 100 nM using casein as substrate by [gamma-33P]-ATP assay
[6] = target: Serine/threonine-protein kinase PLK1 (Homo sapiens) (UniProt P53350); experiment: Inhibition of human PLK1 at 100 nM using casein as substrate by [gamma-33P]-ATP assay
[7] = target: Serine/threonine-protein kinase 38-like (Homo sapiens) (UniProt Q9Y2H1); experiment: Inhibition of human STK38L at 100 nM using KKRNRRLSVA as substrate by [gamma-33P]-ATP assay
MCF7 = experiment: cells; conditions: Homo sapiens, MCF7, 72 h
[8] = target: Membrane-associated tyrosine- and threonine-specific cdc2-inhibitory kinase (Homo sapiens) (UniProt Q99640); experiment: Inhibition of human PKMYT1 at 100 nM using MBP as substrate by [gamma-33P]-ATP assay
[9] = target: Dual specificity protein kinase CLK4 (Homo sapiens) (UniProt Q9HAZ1); experiment: Inhibition of human CLK4 at 100 nM using MBP as substrate by [gamma-33P]-ATP assay
[10] = target: Tyrosine-protein kinase Mer (Homo sapiens) (UniProt Q12866); experiment: Inhibition of human c-MER at 100 nM using poly[Glu:Tyr] (4:1) as substrate by [gamma-33P]-ATP assay
[11] = target: High affinity nerve growth factor receptor (Homo sapiens) (UniProt P04629); experiment: Inhibition of human TRKA at 100 nM using poly[Glu:Tyr] (4:1) as substrate by [gamma-33P]-ATP assay
[12] = target: CDK18/Cyclin Y (Homo sapiens) (UniProt Q07002+Q8ND76); experiment: Inhibition of human CDK18/cyclin-Y at 100 nM using RB protein as substrate by [gamma-33P]-ATP assay; type: protein-complex assay
[13] = target: Dual specificity mitogen-activated protein kinase kinase 4 (Homo sapiens) (UniProt P45985); experiment: Inhibition of human MKK4 at 100 nM using JNK1 as substrate by [gamma-33P]-ATP assay
[14] = target: NT-3 growth factor receptor (Homo sapiens) (UniProt Q16288); experiment: Inhibition of human TRKC at 100 nM using poly[Glu:Tyr] (4:1) as substrate by [gamma-33P]-ATP assay
[15] = target: Receptor-type tyrosine-protein kinase FLT3 (Homo sapiens) (UniProt P36888); experiment: Inhibition of human FLT3 at 100 nM using EAIYAAPFAKKK as substrate by [gamma-33P]-ATP assay
[16] = target: Serine/threonine-protein kinase D2 (Homo sapiens) (UniProt Q9BZL6); experiment: Inhibition of human PKD2 at 100 nM using KKLNRTLSVA as substrate by [gamma-33P]-ATP assay
[17] = target: Dual specificity mitogen-activated protein kinase kinase 7 (Homo sapiens) (UniProt O14733); experiment: Inhibition of human MKK7 at 100 nM using JNK as substrate by [gamma-33P]-ATP assay
[18] = Volume of distribution at steady state in Sprague-Dawley rat at 1 mg/kg, iv measured upto 24 hrs by LC-MS/MS analysis; type: ADME, organism-based; conditions: in vivo, read-out: Vdss
[19] = target: Dual serine/threonine and tyrosine protein kinase (Homo sapiens) (UniProt Q6XUX3); experiment: Inhibition of human RIPK5 at 100 nM using MBP as substrate by [gamma-33P]-ATP assay
[20] = target: Serine/threonine-protein kinase MAK (Homo sapiens) (UniProt P20794); experiment: Inhibition of human MAK at 100 nM using MBP as substrate by [gamma-33P]-ATP assay
[21] = target: Mitogen-activated protein kinase kinase kinase 5 (Homo sapiens) (UniProt Q99683); experiment: Inhibition of human ASK1 at 100 nM using MBP as substrate by [gamma-33P]-ATP assay
A549 = experiment: Antitumor activity against human A549 cells xenografted in ig dosed BALB/c nude mouse assessed as tumor growth inhibition administered for 30 days measured every 3 days during compound dosing relative to control; type: functional, organism-based
[22] = target: Protein kinase C epsilon type (Homo sapiens) (UniProt Q02156); experiment: Inhibition of human PKCepsilon at 100 nM using ERMRPRKRQGSVRRRV as substrate by [gamma-33P]-ATP assay
[23] = target: Ephrin type-A receptor 7 (Homo sapiens) (UniProt Q15375); experiment: Inhibition of human EPHA7 at 100 nM using poly[Glu:Tyr] (4:1) as substrate by [gamma-33P]-ATP assay
[24] = target: Serine/threonine-protein kinase Sgk3 (Homo sapiens) (UniProt Q96BR1); experiment: Inhibition of human SGK3 at 100 nM using GRPRTSSFAEG as substrate by [gamma-33P]-ATP assay
HeLa = experiment: Inhibition of colony formation in human HeLa cells incubated for 2 weeks crystal violet staining based assay; type: functional, cell-based
[25] = target: Ephrin type-A receptor 3 (Homo sapiens) (UniProt P29320); experiment: Inhibition of human EPHA3 at 100 nM using poly[Glu:Tyr] (4:1) as substrate by [gamma-33P]-ATP assay
[26] = target: Serine/threonine-protein kinase LATS1 (Homo sapiens) (UniProt O95835); experiment: Inhibition of human LATS1 at 100 nM using KKRNRRLSVA as substrate by [gamma-33P]-ATP assay
[27] = target: Serine/threonine-protein kinase TAO3 (Homo sapiens) (UniProt Q9H2K8); experiment: Inhibition of human TAOK3 at 100 nM using MBP as substrate by [gamma-33P]-ATP assay
[28] = target: cAMP-dependent protein kinase catalytic subunit alpha (Homo sapiens) (UniProt P17612); experiment: Inhibition of human PKA at 100 nM using LCGRTGRRNSI as substrate by [gamma-33P]-ATP assay
[29] = target: Inhibitor of nuclear factor kappa-B kinase subunit beta (Homo sapiens) (UniProt O14920); experiment: Inhibition of human IKKbeta at 100 nM using KKKKERLLDDRHDSGLDSMKDEE as substrate by [gamma-33P]-ATP assay

Sequence of Serine/threonine-protein kinase PLK1 (Homo sapiens) (P53350 whole entry): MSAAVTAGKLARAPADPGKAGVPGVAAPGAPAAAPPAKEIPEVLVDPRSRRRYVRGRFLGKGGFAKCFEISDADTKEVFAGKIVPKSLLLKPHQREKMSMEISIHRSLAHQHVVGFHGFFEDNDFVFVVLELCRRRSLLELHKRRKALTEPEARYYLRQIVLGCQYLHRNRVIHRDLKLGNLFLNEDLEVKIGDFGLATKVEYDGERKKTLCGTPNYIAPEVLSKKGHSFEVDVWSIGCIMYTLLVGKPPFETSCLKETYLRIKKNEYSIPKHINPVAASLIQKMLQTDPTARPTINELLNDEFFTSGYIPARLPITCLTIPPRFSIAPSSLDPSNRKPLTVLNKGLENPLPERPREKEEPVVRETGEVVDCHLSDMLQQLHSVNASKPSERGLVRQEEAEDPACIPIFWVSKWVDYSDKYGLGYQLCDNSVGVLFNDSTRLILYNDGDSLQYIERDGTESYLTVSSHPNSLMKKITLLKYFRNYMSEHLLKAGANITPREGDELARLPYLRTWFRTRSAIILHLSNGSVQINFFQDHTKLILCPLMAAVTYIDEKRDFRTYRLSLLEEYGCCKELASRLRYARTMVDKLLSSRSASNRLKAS
Sequence of Membrane-associated tyrosine- and threonine-specific cdc2-inhibitory kinase (Homo sapiens) (Q99640 whole entry): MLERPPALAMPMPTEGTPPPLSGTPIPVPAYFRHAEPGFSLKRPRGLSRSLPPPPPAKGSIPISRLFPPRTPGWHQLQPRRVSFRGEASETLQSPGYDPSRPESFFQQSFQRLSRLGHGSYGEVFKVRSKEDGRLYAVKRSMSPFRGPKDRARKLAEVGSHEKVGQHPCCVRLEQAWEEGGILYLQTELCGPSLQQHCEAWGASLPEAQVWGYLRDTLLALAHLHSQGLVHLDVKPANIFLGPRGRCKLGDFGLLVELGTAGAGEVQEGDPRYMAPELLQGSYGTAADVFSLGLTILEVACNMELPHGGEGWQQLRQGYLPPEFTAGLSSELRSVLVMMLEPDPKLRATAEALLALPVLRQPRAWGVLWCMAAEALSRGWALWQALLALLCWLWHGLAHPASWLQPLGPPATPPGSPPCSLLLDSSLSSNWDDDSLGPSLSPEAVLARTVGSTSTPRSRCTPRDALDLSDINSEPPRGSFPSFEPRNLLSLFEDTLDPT
Sequence of Protein kinase C epsilon type (Homo sapiens) (Q02156 whole entry): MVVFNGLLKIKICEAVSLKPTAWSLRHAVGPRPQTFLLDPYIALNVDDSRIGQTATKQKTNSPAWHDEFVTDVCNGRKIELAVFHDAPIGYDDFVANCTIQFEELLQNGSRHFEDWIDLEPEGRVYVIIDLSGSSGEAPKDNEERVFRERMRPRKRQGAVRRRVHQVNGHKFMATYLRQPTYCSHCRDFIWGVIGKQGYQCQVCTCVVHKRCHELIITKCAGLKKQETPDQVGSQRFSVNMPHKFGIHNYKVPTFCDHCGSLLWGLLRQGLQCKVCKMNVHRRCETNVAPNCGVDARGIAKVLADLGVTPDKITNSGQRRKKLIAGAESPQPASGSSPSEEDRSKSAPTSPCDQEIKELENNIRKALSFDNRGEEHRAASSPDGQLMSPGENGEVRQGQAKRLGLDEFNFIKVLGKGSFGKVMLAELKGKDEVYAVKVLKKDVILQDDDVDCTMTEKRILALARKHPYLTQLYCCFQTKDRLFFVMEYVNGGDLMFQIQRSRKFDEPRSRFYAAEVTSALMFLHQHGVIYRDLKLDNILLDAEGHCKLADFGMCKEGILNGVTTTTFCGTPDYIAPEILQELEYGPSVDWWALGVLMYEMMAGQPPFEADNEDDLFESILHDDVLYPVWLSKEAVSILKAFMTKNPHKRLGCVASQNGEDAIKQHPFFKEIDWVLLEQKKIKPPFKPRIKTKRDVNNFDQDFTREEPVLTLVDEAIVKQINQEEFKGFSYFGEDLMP
Sequence of Dual specificity protein kinase CLK4 (Homo sapiens) (Q9HAZ1 whole entry, looked up): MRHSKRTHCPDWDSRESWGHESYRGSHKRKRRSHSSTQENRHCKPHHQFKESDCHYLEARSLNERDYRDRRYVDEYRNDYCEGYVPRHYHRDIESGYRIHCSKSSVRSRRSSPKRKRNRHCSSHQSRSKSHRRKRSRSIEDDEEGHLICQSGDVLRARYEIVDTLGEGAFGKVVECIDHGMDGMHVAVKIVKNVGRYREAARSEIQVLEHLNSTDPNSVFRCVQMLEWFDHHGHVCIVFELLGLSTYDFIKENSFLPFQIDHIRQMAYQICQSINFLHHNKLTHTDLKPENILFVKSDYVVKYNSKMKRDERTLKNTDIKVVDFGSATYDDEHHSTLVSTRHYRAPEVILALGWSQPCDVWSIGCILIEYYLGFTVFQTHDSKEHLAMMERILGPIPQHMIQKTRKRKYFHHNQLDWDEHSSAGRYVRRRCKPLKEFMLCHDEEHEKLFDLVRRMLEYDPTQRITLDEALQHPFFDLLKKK
Sequence of Serine/threonine-protein kinase TAO3 (Homo sapiens) (Q9H2K8 whole entry): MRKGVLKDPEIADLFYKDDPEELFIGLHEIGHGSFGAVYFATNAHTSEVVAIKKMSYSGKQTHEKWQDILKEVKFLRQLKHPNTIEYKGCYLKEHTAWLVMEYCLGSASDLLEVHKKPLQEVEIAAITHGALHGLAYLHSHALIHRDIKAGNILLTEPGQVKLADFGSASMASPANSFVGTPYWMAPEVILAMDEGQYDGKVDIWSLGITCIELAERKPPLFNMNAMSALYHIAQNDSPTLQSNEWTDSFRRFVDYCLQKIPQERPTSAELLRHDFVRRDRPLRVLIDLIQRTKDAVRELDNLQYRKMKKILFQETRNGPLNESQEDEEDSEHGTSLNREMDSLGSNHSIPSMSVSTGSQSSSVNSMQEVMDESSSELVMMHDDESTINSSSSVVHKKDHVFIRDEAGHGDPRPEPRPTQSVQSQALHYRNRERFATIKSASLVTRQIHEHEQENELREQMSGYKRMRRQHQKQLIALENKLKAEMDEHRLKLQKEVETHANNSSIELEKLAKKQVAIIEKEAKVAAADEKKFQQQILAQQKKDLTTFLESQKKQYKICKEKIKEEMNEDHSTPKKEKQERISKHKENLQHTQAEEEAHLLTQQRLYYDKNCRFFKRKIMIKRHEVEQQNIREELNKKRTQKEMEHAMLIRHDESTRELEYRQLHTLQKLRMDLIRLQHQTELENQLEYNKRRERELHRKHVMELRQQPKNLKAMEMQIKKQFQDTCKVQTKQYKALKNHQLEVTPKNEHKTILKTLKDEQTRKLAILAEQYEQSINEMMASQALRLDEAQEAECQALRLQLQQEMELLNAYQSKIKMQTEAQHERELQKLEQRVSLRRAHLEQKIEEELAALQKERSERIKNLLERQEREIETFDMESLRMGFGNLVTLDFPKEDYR
Sequence of Mitogen-activated protein kinase kinase kinase 5 (Homo sapiens) (Q99683 whole entry): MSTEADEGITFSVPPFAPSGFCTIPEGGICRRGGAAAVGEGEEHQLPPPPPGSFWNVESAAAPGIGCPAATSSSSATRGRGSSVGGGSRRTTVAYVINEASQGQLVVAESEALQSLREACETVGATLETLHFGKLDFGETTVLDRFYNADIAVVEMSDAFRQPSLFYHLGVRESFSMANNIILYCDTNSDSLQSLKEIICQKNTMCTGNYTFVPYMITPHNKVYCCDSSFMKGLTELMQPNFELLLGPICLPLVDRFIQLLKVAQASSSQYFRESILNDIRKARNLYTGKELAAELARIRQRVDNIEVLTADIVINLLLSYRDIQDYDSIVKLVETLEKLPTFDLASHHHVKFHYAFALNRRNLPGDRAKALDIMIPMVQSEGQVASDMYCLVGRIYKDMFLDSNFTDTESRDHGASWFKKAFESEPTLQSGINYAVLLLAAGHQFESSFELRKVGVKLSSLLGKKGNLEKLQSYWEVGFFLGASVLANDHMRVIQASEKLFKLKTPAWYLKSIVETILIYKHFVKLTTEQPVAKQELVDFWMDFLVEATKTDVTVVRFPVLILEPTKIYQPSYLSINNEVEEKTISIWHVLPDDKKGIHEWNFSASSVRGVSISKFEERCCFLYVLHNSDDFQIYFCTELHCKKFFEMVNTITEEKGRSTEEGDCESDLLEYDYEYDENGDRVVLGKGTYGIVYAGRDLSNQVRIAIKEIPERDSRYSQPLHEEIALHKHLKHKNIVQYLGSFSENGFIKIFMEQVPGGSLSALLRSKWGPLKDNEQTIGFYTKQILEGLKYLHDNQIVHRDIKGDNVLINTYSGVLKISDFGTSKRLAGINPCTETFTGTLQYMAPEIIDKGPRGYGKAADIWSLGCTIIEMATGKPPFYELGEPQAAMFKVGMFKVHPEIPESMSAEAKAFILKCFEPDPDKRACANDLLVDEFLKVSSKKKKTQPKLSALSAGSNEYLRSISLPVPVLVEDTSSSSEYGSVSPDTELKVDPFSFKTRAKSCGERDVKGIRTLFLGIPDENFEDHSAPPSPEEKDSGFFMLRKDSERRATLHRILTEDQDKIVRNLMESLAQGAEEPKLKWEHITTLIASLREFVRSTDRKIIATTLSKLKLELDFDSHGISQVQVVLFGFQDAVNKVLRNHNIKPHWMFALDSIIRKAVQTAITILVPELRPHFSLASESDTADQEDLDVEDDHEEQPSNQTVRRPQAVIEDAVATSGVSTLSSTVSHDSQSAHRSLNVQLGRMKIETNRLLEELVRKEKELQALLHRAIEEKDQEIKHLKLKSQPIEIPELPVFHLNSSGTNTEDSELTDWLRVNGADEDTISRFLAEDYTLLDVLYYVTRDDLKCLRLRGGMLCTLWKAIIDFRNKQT
Sequence of Mitogen-activated protein kinase 11 (Homo sapiens) (Q15759 whole entry): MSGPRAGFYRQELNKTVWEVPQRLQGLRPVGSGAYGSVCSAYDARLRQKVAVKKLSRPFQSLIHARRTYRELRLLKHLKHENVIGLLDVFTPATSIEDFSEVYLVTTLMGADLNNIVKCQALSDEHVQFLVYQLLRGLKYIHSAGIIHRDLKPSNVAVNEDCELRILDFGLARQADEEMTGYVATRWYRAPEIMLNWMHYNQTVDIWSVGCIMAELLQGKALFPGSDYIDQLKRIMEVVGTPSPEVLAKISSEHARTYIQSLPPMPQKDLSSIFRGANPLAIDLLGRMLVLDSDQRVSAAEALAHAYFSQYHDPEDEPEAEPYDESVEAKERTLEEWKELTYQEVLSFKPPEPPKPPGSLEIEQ

COc1ccc(N2C(=O)COc3ccc(-c4cnc(OC)c(NS(=O)(=O)c5ccc(F)cc5)c4)cc32)cc1
inhibition [1]: 16% | inhibition [2]: -7.49% | inhibition [3]: 9.33% | inhibition [4]: 14.4% | inhibition [5]: -4.85% | inhibition [6]: 8.68% | inhibition [7]: -2.59% | IC50 (MCF7): 8.26 µM | inhibition [8]: 14% | inhibition [9]: 6.64% | inhibition [10]: 5.47% | inhibition [11]: 5.12% | inhibition [12]: 9.02% | inhibition [13]: -4.2% | inhibition [14]: 2.63% | inhibition [15]: 16.6% | inhibition [16]: -3.61% | inhibition [17]: -2.26% | Vd [18]: 1.2 L/kg | inhibition [19]: 9.57% | inhibition [20]: 16.2% | inhibition [21]: -8.49% | TGI (A549): Dose-dependent effect | inhibition [22]: 3.65% | inhibition [23]: 11.5% | inhibition [24]: 3.8% | inhibition (HeLa): Dose-dependent effect | inhibition [25]: 20.6% | inhibition [26]: 10.1% | inhibition [27]: 6.13% | inhibition [28]: 15.1% | inhibition [29]: 14.5%
